US4000297A, “N-p-chlorobenzoyl tryptophane, salts and compositions thereof” (priority 1971, dated 1976)
Structures can show the parent of a compound that is named as a salt. Where two headings read alike, the source gives them in different places.

What was measured:
Format in all cases: in vivo
[1] = Acute toxicity (DL50) in the mouse; conditions: iv (Table 1); for LD50: in vivo, read-out: DL50 value
Source text: *1 DL50 in the mouse mg/kg iv.
Examples of differences between toxicity (DL50 in
the mouse) by intravenous administration and oral
administration in mg/kg. Variation in therapeutic

[2] = system: gastric secretion; test: Anti-secretive activity in the rat with lig. pylorus, iv; conditions: for ED50: read-out: Activity A: anti-secretive activity ED50
[3] = system: gastric secretion; test: Anti-secretive activity in the rat by gastric stimulus, oral; conditions: oral (Table 1); for ED50: read-out: Activity B: anti-secretive activity ED50
Procedure: *3 Anti-secretive activity in the rat by gastric stimulus, ED50 mg/k

[4] = system: gastric secretion; test: Comparison of antisecretive activity, rats with tied pylorus, oral aqueous suspension; conditions: oral
Procedure: (*)The antisecretive activity is defined as the dose in mg/kg of body
weight of the animal, which reduces the gastric secretion by 50%. The
evaluation is effected by considering the decrease in quantity of secrete
gastric juice as compared with controls. Rats of an average weight of 200
± 20 grams are employed of which the lower part of the stomach at the
level of the pylorus is tied to collect the gastric juice during the
indicated periods. The preparations are administered orally in the form o

[5] = rat with lig. pylorus, iv (Table 1)

Compound | LD50 ([1]; iv) [mg/kg] | ED50 [2, 5] [mg/kg] | ED50 [3] [mg/kg] | LD50 [1] [mg/kg] | ED50 ([2]; Rattus norvegicus, iv) [mg/kg] | other results
O=C(N[C@@H](Cc1c[nH]c2ccccc12)C(=O)O)OCc1cccc2ccccc12 [Ex.31 (CR514), N-(carbo-alpha-naphthyl-methoxy)-L-tryptophane] | 160 | 128 | 94 |  |  | 
O=C(N[C@@H](Cc1c[nH]c2ccccc12)C(=O)Nc1ccc(C(=O)OCc2ccccc2)cc1)OCc1ccccc1 [Ex.36 (CR430), Benzyl-N-carbobenzoxy-L-tryptophyl-p-aminobenzoate] | 1000 | 690 | 520 |  |  | 
O=C(N[C@@H](Cc1c[nH]c2ccccc12)C(=O)O)c1ccc([N+](=O)[O-])cc1 [Ex.29 (CR502), N-p-nitro-benzoyl-L-tryptophane. C2 H5 OH] |  | 339 | 270 | 806 |  | 
O=C(O)c1ccc(C(=O)N[C@@H](Cc2c[nH]c3ccccc23)C(=O)O)cc1 [Ex.27 (CR508), N-p-carboxy-benzoyl-L-tryptophane] |  | 514 | 406 | 900 |  | 
O=C(N[C@@H](Cc1c[nH]c2ccccc12)C(=O)Nc1ccc(C(=O)Oc2ccccc2)cc1)OCc1ccccc1 [Ex.35 (CR411), Phenyl-N-carbobenzoxy-L-tryptophyl-p-aminobenzoate] | 1000 | 610 | 460 |  |  | 
O=C(N[C@@H](Cc1c[nH]c2ccccc12)C(=O)O)OCc1ccc(C(F)(F)F)cc1 [Ex.11 (CR515), N-p-trifluoromethyl-carbobenzoxy-L-tryptophane] | 175 |  | 92 |  | 112 | 
O=C(N[C@H](Cc1c[nH]c2ccccc12)C(=O)O)OCc1ccc(Cl)cc1 [Ex. 5 (CR630), N-p-chloro-carbobenzoxy-D-tryptophane] | 260 |  | 107 |  | 142 | 
Cc1ccc(C(=O)NC(Cc2c[nH]c3ccccc23)C(=O)O)cc1 (racemic) [Ex.23 (CR555), N-p-toluyl-DL-tryptophane] |  |  | 172 | 340 | 204 | 
COc1ccc(C(=O)N[C@@H](Cc2c[nH]c3ccccc23)C(=O)O)cc1 [Ex.26 (CR507), N-p-methoxy-benzoyl-L-tryptophane] |  | 437 | 494 | 1000 |  | 
O=C(N[C@@H](Cc1c[nH]c2ccccc12)C(=O)O)OCc1ccc(Cl)c(Cl)c1 [Ex.16 (CR469), N-(3,4-dichloro)-carbobenzoxy-L-tryptophane] | 208 |  | 104 |  | 137 | 
N#Cc1ccc(C(=O)N[C@@H](Cc2c[nH]c3ccccc23)C(=O)O)cc1 [Ex.24 (CR512), N-p-cyano-benzoyl-L-tryptophane] |  |  | 360 | 1450 | 500 | 
COC(=O)Cc1ccc(NC(=O)[C@H](Cc2c[nH]c3ccccc23)NC(=O)OCc2ccccc2)cc1 [Ex.38 (CR417), Methyl-N-carbobenzoxy-L-tryptophyl-p-aminophenylacetate] | 1000 | 300 | 300 |  |  | 
O=C(N[C@@H](Cc1c[nH]c2ccccc12)C(=O)O)c1cccc(Cl)c1 [Ex.30 (CR546), N-m-chloro-benzoyl-L-tryptophane] |  |  | 147 | 560 | 210 | 
O=C(NC(Cc1c[nH]c2ccccc12)C(=O)O)c1ccccc1Cl (racemic) [Ex.51 (CR618), N-o-chlorobenzoyl-DL-tryptophane] |  | 345 | 320 | 1400 |  | 
O=C(Cc1ccc(NC(=O)[C@H](Cc2c[nH]c3ccccc23)NC(=O)OCc2ccccc2)cc1)OCc1ccccc1 [Ex.39 (CR419), Benzyl-N-carbobenzoxy-L-tryptophyl-p-aminophenylacetate] | 1000 | 430 | 350 |  |  | 
Cc1ccc(COC(=O)N[C@@H](Cc2c[nH]c3ccccc23)C(=O)O)cc1Cl [Ex.17 (CR497), N-(3-chloro-4-methyl)-carbobenzoxy-L-tryptophane] | 190 |  | 196 |  | 231 | 
O=C(N[C@@H](Cc1c[nH]c2ccccc12)C(=O)Nc1ccc(C(=O)Oc2ccc(Cl)cc2Cl)cc1)OCc1ccccc1 [Ex.34 (CR432), 2,4-Dichlorophenyl-N-carbobenzoxy-L-tryptophyl-p-aminobenzoate] | 1000 | 370 | 310 |  |  | 
O=C(NC(Cc1c[nH]c2ccccc12)C(=O)O)OCc1ccc(Cl)cc1 (racemic) [Ex. 4 (CR463), N-p-chloro-carbobenzoxy-DL-tryptophane] | 217 |  | 130 |  | 161 | 
O=C(N[C@@H](Cc1c[nH]c2ccccc12)C(=O)O)OCc1cccc(Cl)c1 [Ex. 2 (CR527), N-m-chloro-carbobenzoxy-L-tryptophane] | 450 |  | 147 |  | 176 | 

Compound | LD50 ([1]; iv) [mg/kg] | ED50 [2, 5] [mg/kg] | ED50 [3] [mg/kg] | LD50 [1] [mg/kg] | ED50 ([2]; Rattus norvegicus, iv) [mg/kg] | other results
O=C(N[C@@H](Cc1c[nH]c2ccccc12)C(=O)O)OCc1ccc(Cl)cc1Cl [Ex.13 (CR470), N-(2,4-dichloro)-carbobenzoxy-L-tryptophane] | 170 | 130 | 97 |  |  | 
CCc1ccc(COC(=O)N[C@@H](Cc2c[nH]c3ccccc23)C(=O)O)cc1 [Ex.10 (CR500), N-p-ethyl-carbobenzoxy-L-tryptophane] | 158 |  | 117 |  | 142 | 
O=C(N[C@@H](Cc1c[nH]c2ccccc12)C(=O)O)OCc1cccc(Cl)c1Cl [Ex.15 (CR499), N-(2,3-dichloro)-carbobenzoxy-L-tryptophane] | 175 | 100 | 60 |  |  | 
O=C(N[C@@H](Cc1c[nH]c2ccccc12)C(=O)Nc1ccc(C(=O)O)cc1)OCc1ccccc1 [Ex.43 (CR422), N-Carbobenzoxy-L-tryptophyl-p-aminobenzoic acid] | 460 | 321 | 180 |  |  | 
Cc1ccc(C(=O)N[C@H](Cc2c[nH]c3ccccc23)C(=O)O)cc1 [Ex.22 (CR556), N-p-toluyl-D-tryptophane] |  |  | 190 | 365 | 354 | 
CCOC(=O)c1ccc(NC(=O)[C@H](Cc2c[nH]c3ccccc23)NC(=O)c2ccccc2)cc1 [Ex.37 (CR402), Ethyl-N-benzoyl-L-tryptophyl-p-aminobenzoate] |  | 310 | 460 | 1000 |  | 
N-p-chlorobenzoyl-L-tryptophyl-phenylacetic acid [Ex.46 (CR589)] |  |  |  |  |  | DL50 value [1]: 295 mg/kg; Activity A: anti-secretive activity ED50 [2, 5]: 189 mg/kg; Activity B: anti-secretive activity ED50 [3]: 120 mg/k
O=C(N[C@@H](Cc1c[nH]c2ccccc12)C(=O)O)OCc1c(Cl)cccc1Cl [Ex.14 (CR495), N-(2,6-dichloro)-carbobenzoxy-L-tryptophane] | 268 | 132 | 108 |  |  | 
O=C(N[C@@H](Cc1c[nH]c2ccccc12)C(=O)O)c1ccc(F)cc1 [Ex.25 (CR506), N-p-fluoro-benzoyl-L-tryptophane] |  |  | 295 | 655 | 223 | 
O=C(O)Cc1ccc(NC(=O)[C@H](Cc2c[nH]c3ccccc23)NC(=O)OCc2ccccc2)cc1 [Ex.44 (CR435), N-carbobenzoxy-L-tryptophyl-p-aminophenylacetic acid] | 980 | 370 | 210 |  |  | 
N-p-bromobenzoyl-L-tryptophyl-phenylacetic acid [Ex.45 (CR511)] |  |  |  |  |  | DL50 value [1]: 690 mg/kg; Activity A: anti-secretive activity ED50 [2, 5]: 246 mg/kg; Activity B: anti-secretive activity ED50 [3]: 281 mg/k
Nc1ccc(C(=O)N[C@@H](Cc2c[nH]c3ccccc23)C(=O)O)cc1 [CR 504 - Calcium salt] |  |  |  |  |  | Antisecretive activity (dose which reduces the gastric secretion by 50%) ([4]; 2.5 hrs, 150 min): 1480 mg/kg; Antisecretive activity (dose which reduces the gastric secretion by 50%) ([4]; 5 hrs, 300 min): 1865 mg/kg; Antisecretive activity (dose which reduces the gastric secretion by 50%) ([4]; 10 hrs, 600 min): > 2000 mg/kg
O=C(N[C@@H](Cc1c[nH]c2ccccc12)C(=O)O)c1ccc(Br)cc1 [Ex.19 (CR503), N-p-bromo-benzoyl-L-tryptophane] |  |  | 85 | 360 | 111 | 
CCN(CC)CCOC(=O)[C@H](Cc1c[nH]c2ccccc12)NC(=O)c1ccc(C)cc1 [Ex.49 (CR636), Diethylaminoethylester of N-p-toluyl-L-tryptophane oxalate] |  | 160 | 120 | 320 |  | 
O=C(N[C@H](Cc1c[nH]c2ccccc12)C(=O)O)c1ccccc1Cl [Ex.52 (CR637), N-o-chlorobenzoyl-D-tryptophane] |  | 440 | 390 | 1530 |  | 
CCOC(=O)c1ccc(NC(=O)[C@H](Cc2c[nH]c3ccccc23)NC(=O)OCc2ccccc2)cc1 [Ex.33 (CR401), Ethyl-N-carbobenzoxy-L-tryptophyl-p-aminobenzoate] | 1000 | 470 | 320 |  |  | 
O=C(N[C@@H](Cc1c[nH]c2ccccc12)C(=O)O)OCc1ccc(I)cc1 [Ex. 7 (CR490), N-p-iodo-carbobenzoxy-L-tryptophane] | 166 |  | 94 |  | 75 | 
COC(=O)Cc1ccc(NC(=O)[C@H](Cc2c[nH]c3ccccc23)NC(=O)c2ccccc2)cc1 [Ex.40 (CR418), Methyl-N-benzoyl-L-tryptophyl-p-aminophenylacetate] |  | 290 | 180 | 1000 |  | 
